Assay results from US20060095979A1, “Transgenic mice containing CLCN4 chloride ion channel gene disruptions” (priority 2001, published 2006).

Test system: mouse
Assay: Metrazol Test (tail vein infusion, seizure susceptibility)
Type: in vivo
Details: for Metrazol Dose Required for First Twitch: Dose at First Twitch: about 5 mg/ml infused through tail vein at about 0.375 ml/min
Protocol: A metrazol administration test can be used to screen animals for varying susceptibilities to seizures or similar events. For example, a 5 mg/ml solution of metrazol can be infused through the tail vein of a mouse at a rate of, e.g., approximately 0.375 ml/min. The infusion will cause all mice to experience seizures, followed by death. Those mice that enter the seizure stage the soonest are believed to be more prone to seizures.
To screen for phenotypes involving changes in seizure susceptibility, the Metrazol Test was be used. About 5 mg/ml of Metrazol was infused through the tail vein of the mouse at a constant rate of about 0.375 ml/min. The infusion caused all mice to experience seizures. Those mice who entered the seizure stage the quickest were thought to be more prone to seizures in general.
The Metrazol test can also be used to screen for phenotypes related to epilepsy. Seven to ten adult wild-type and homozygote males were used. A fresh solution of about 5 mg/ml pentylenetetrazole in approximately 0.9% NaCl was prepared prior to testing. Mice were weighed and loosely held in a restrainer. After exposure to a heat lamp to dilate the tail vein, mice were continuously infused with the pentylenetetrazole solution using a syringe pump set at a constant flow rate. The following stages were recorded: first twitch (sometimes accompanied by a squeak), beginning of the tonic/clonic seizure, tonic extension and survival time. The dose required for each phase was determined and the latency to each phase was determined between genotypes. Alterations in any stage may indicate an overall imbalance in excitatory or inhibitory neurotransmitter levels.

C1CCc2nnnn2CC1 [Metrazol, pentylenetetrazole]
dose of metrazol to induce the first twitch response, homozygous mutant (−/−) compared to wild-type (+/+) control mice (age- and gender-matched mice): higher dose | Metrazol Dose Required for First Twitch: Dose at First Twitch (homozygous mutant (−/−) CLCN4 male mice): 34.14 mg/kg | Metrazol Dose Required for First Twitch: Dose at First Twitch (wild-type (+/+) male mice): 28.06 mg/kg
